Measured values reported in ChEMBL document CHEMBL1158664, “New compounds with DNA strand-scission activity from the combined leaf and stem of Uvaria hamiltonii” (J Nat Prod, 1998).
≈ marks a conversion by molar mass, not a printed value. Calls of active or inactive are those of the source. The rule behind the calls is not given here.

What was measured:
[1] = Induction of strand scission activity in DNA assessed as relaxation of supercoiled DNA at 25 ug/ml; design: scale not given: the % may be the effect or the level left
[2] = Induction of strand scission activity in DNA assessed as ratio of 25 uM drug-induced to bleomycin-induced relaxation of supercoiled DNA
[3] = Cytotoxicity against human 9KB cells; type: functional, cell-based
[4] = Induction of strand scission activity in DNA assessed as relaxation of supercoiled DNA at 2.5 ug/ml; design: scale not given: the % may be the effect or the level left
[5] = Induction of strand scission activity in DNA assessed as ratio of 2.5 uM drug-induced to bleomycin-induced relaxation of supercoiled DNA

| SMILES | Activity [1] | Activity [2] | Activity [4] [%] | Activity [5] | IC50 [3] [µg/mL] |
| --- | --- | --- | --- | --- | --- |
| COc1ccc([C@@H]2CC(=O)c3c(cc(OC)c(O)c3OC)O2)cc1 [HAMILTONE A] | 88% | 1.1 |  |  | > 20 |
| COc1cc(O)c(C(=O)/C=C/c2ccc(O)c(O)c2)c(OC)c1OC [HAMILCONE] | 47% | 0.6 |  |  | 8 (≈ 23.1 µM) |
| COc1cc2c(c(OC)c1OC)C(=O)/C(=C/c1ccc(O)c(O)c1)O2 |  |  | 83 | 10 | > 20 |

Second part, led by results:

| Activity [1] | Activity [2] | Activity [4] [%] | Activity [5] | SMILES | IC50 [3] [µg/mL] |
| --- | --- | --- | --- | --- | --- |
| 76% | 1 |  |  | COc1cc2c(c(OC)c1OC)C(=O)CC(c1ccc(O)c(O)c1)O2 (racemic) [HAMILTONE B] | > 20 |
| inactive | inactive |  |  | O=C(OC[C@@]12C=C[C@@H](OC(=O)c3ccccc3)[C@@H](O)[C@H]1Cc1cc(O)ccc1O2)c1ccccc1 [HEMILXANTHENE] | 10 (≈ 21.2 µM) |
